From PubChem BioAssay AID330 (DTP/NCI, 2004) come the findings set out here.

Values joined by “and” are separate entries in the source; they are usually repeats but may differ in a detail not shown here. Equal values may be shown once. Inconclusive results and toxic doses are left out.

The subject of the assay is P388 leukemia ip, CD2F1 mice, survival T/C. Briefly: NCI In Vivo Anticancer Drug Screen. Data for tumor model P388 Leukemia (intraperitoneal) in CD2F1 (CDF1) mice. To be noted: endpoint: median survival time, higher = longer survival. In a few lines: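 Mice carrying the transplanted tumor received test compound or vehicle. Survival was recorded in each group, and the value is the treated-group measurement divided by that of the vehicle-treated control group.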

[1] abbreviates: dose: 60.0 mg/kg/injection, schedule: Q01DX005 (ip), vehicle: saline with Tween-80.
[2] abbreviates: dose: 120.0 mg/kg/injection, schedule: Q01DX005 (ip), vehicle: saline with Tween-80.
Setting [3] is: dose: 240.0 mg/kg/injection, schedule: Q01DX005 (ip), vehicle: saline with Tween-80.
[4] abbreviates: dose: 50.0 mg/kg/injection, schedule: Q01DX005 (ip), vehicle: saline.
Where [5] appears, read: dose: 100.0 mg/kg/injection, schedule: Q01DX005 (ip), vehicle: saline.
The mark [6] stands for this setting: dose: 200.0 mg/kg/injection, schedule: Q01DX005 (ip), vehicle: saline.
Where [7] appears, read: dose: 25.0 mg/kg/injection, schedule: Q01DX005 (ip), vehicle: saline.
The mark [8] stands for this setting: dose: 25.0 mg/kg/injection, schedule: Q01DX009 (ip), vehicle: saline with Tween-80.
Setting [9] is: dose: 50.0 mg/kg/injection, schedule: Q01DX009 (ip), vehicle: saline with Tween-80.
[10] abbreviates: dose: 100.0 mg/kg/injection, schedule: Q01DX009 (ip), vehicle: saline with Tween-80.
Where [11] appears, read: dose: 200.0 mg/kg/injection, schedule: Q01DX009 (ip), vehicle: saline with Tween-80.
The mark [12] stands for this setting: dose: 50.0 mg/kg/injection, schedule: Q01DX009 (ip), vehicle: Klucel (hydroxypropylcellulose) (HPC).
The mark [13] stands for this setting: dose: 100.0 mg/kg/injection, schedule: Q01DX009 (ip), vehicle: Klucel (hydroxypropylcellulose) (HPC).
Where [14] appears, read: dose: 200.0 mg/kg/injection, schedule: Q01DX009 (ip), vehicle: Klucel (hydroxypropylcellulose) (HPC).
Where [15] appears, read: dose: 25.0 mg/kg/injection, schedule: Q01DX009 (ip), vehicle: saline.
[16] abbreviates: dose: 25.0 mg/kg/injection, schedule: Q01DX009 (ip), vehicle: other.
Where [17] appears, read: dose: 100.0 mg/kg/injection, schedule: Q01DX009 (ip), vehicle: other.
Where [18] appears, read: dose: 200.0 mg/kg/injection, schedule: Q01DX009 (ip), vehicle: other.
The mark [19] stands for this setting: dose: 50.0 mg/kg/injection, schedule: Q01DX005 (ip), vehicle: Klucel (hydroxypropylcellulose) (HPC).
Setting [20] is: dose: 100.0 mg/kg/injection, schedule: Q01DX005 (ip), vehicle: Klucel (hydroxypropylcellulose) (HPC).
[21] abbreviates: dose: 200.0 mg/kg/injection, schedule: Q01DX005 (ip), vehicle: Klucel (hydroxypropylcellulose) (HPC).

With `CCC(c1ccc(OC)cc1)C(CC)c1ccc(O)c(CN(C)C)c1` (centres undefined), the T/C reads like this: under setting [1], 94 % of control; under setting [2], 92 % of control; under setting [3], 92 % of control.
As for `CC1(C)SSCC1=O`, the T/C under setting [4] was 104 % of control, the T/C under setting [5] was 109 % of control and the T/C under setting [6] was 108 % of control.
Take `CC(C)CC(NC(=O)CN)C(=O)O` (centres undefined): the T/C runs as follows: under setting [7], 103 % of control; under setting [8], 95 % of control; under setting [4], 101 % of control; under setting [9], 89 % of control; under setting [5], 103 % of control; under setting [10], 88 % of control. For the same molecule, the T/C was 99 % of control under setting [6] and 91 % of control under setting [11].
Regarding `O=C(Oc1ccccc1)c1ccc(C(=O)Oc2ccccc2)cc1`, the T/C under setting [12] is 108 % of control, the T/C under setting [13] is 102 % of control and the T/C under setting [14] is 101 % of control.
In the case of `O=C1Nc2ccccc2/C1=N/N=C/c1ccc(Cl)cc1Cl`, the T/C under setting [12] was 100 % of control; the T/C under setting [13] was 88 % of control and 90 % of control; the T/C under setting [14] is 100 % of control and 98 % of control.
As to `COc1cc2c(c3c1C(=O)c1c(cc4c(c1O)C(OC1OC(C)C(OC)C(C)(OC)C1OC)CC(C)(O)C4)C3=O)OC1OC2(C)C(O)C(N(C)C)C1O` (centres undefined), the T/C (dose: 5.0 mg/kg/injection, schedule: Q01DX009 (ip), vehicle: other) was 153 % of control; the T/C (dose: 10.0 mg/kg/injection, schedule: Q01DX009 (ip), vehicle: other) was 159 % of control; the T/C (dose: 20.0 mg/kg/injection, schedule: Q01DX009 (ip), vehicle: other) is 168 % of control.
As to `COc1ccc(C#N)cc1OC`, the T/C is, setting by setting: (dose: 6.25 mg/kg/injection, schedule: Q01DX009 (ip), vehicle: saline) 99 % of control; (dose: 12.5 mg/kg/injection, schedule: Q01DX009 (ip), vehicle: saline) 108 % of control; under setting [15], 92 % of control; (dose: 50.0 mg/kg/injection, schedule: Q01DX009 (ip), vehicle: saline) 92 % of control.
For `CC1=NN(C(=O)c2ccncc2)C(=O)C1N=Nc1ccc(S(=O)(=O)Nc2nccs2)cc1` (centres undefined), the T/C is 102 % of control under setting [9], 97 % of control under setting [10] and 96 % of control under setting [11].
On to `CC([NH-])C(=O)O.[Cu+2].[NH-]C(Cc1cnc[nH]1)C(=O)O` (centres undefined), for which, under setting [15], the T/C was 97 % of control.
`CCCCCCCCCCCCCCCCCCSC1=CC(=O)c2ccccc2C1=O`: the T/C by setting is: (dose: 3.13 mg/kg/injection, schedule: Q01DX009 (ip), vehicle: saline with Tween-80) 95 % of control; (dose: 6.25 mg/kg/injection, schedule: Q01DX009 (ip), vehicle: saline with Tween-80) 95 % of control; (dose: 12.5 mg/kg/injection, schedule: Q01DX009 (ip), vehicle: saline with Tween-80) 90 % of control; under setting [8], 89 % of control; under setting [9], 97 % of control.
As for `O=S(=O)(F)c1ccc2nc(-c3cccc(Sc4ccccc4)c3)cc(Cl)c2c1`, the T/C is, setting by setting: under setting [10], 100 % of control; under setting [11], 95 % of control; (dose: 400.0 mg/kg/injection, schedule: Q01DX009 (ip), vehicle: saline with Tween-80) 95 % of control.
With `O=C1OCC/C1=C1/Nc2ccccc2NC1=O`, the T/C runs as follows: under setting [9], 89 % of control; under setting [11], 91 % of control.
For `COc1ccc(C(OCC2CC3CCC2C3)OCC2CC3CCC2C3)cc1` (centres undefined), the T/C was 114 % of control (dose: 12.5 mg/kg/injection, schedule: Q01DX009 (ip), vehicle: other); 111 % of control under setting [16]; 110 % of control (dose: 50.0 mg/kg/injection, schedule: Q01DX009 (ip), vehicle: other); 111 % of control under setting [17]; 111 % of control under setting [18].
With `CN1CCCc2cc(/C=C\c3ccnc4ccccc34)ccc21`, the T/C is 93 % of control (dose: 25.0 mg/kg/injection, schedule: Q01DX009 (ip), vehicle: Klucel (hydroxypropylcellulose) (HPC)); 104 % of control under setting [12]; 118 % of control under setting [14].
On to `Cc1ccc(N=CN(C)C=Nc2ccc(C)cc2C)c(C)c1`, for which the T/C was 104 % of control (dose: 50.0 mg/kg/injection, schedule: Q01DX009 (ip), vehicle: suspension in saline); 113 % of control (dose: 100.0 mg/kg/injection, schedule: Q01DX009 (ip), vehicle: suspension in saline); 107 % of control (dose: 200.0 mg/kg/injection, schedule: Q01DX009 (ip), vehicle: suspension in saline).
Take `Cc1ccc(S(=O)(=O)C(=S)SCc2ccccc2)cc1`: the T/C is 106 % of control under setting [19], 105 % of control under setting [20] and 96 % of control under setting [21].
As to `CN1CCC(=NO)CC1`, the T/C was 95 % of control (dose: 60.0 mg/kg/injection, schedule: Q01DX005 (ip), vehicle: saline); 89 % of control (dose: 120.0 mg/kg/injection, schedule: Q01DX005 (ip), vehicle: saline); 94 % of control (dose: 240.0 mg/kg/injection, schedule: Q01DX005 (ip), vehicle: saline).
As to `CCN(CC)CCCC(C)Nc1nccc2cccc(Cl)c12` (centres undefined), the T/C under setting [4] was 104 % of control and the T/C under setting [5] is 104 % of control.
On to `O=C1C(N=Nc2cc(Cl)ccc2Cl)C(O)N(c2ccc(Cl)cc2)C(=S)N1c1cccc(Cl)c1Cl` (centres undefined), for which the T/C is 100 % of control (dose: 100.0 mg/kg/injection, schedule: Q04DX002 (ip), vehicle: Klucel (hydroxypropylcellulose) (HPC)); 101 % of control (dose: 200.0 mg/kg/injection, schedule: Q04DX002 (ip), vehicle: Klucel (hydroxypropylcellulose) (HPC)); 99 % of control (dose: 400.0 mg/kg/injection, schedule: Q04DX002 (ip), vehicle: Klucel (hydroxypropylcellulose) (HPC)).
`CN1C(=O)CN(CN2CCOCC2)C1=O`: the T/C reads like this: under setting [19], 106 % of control; under setting [20], 115 % of control; under setting [21], 117 % of control.
Consider `O=C(CCl)NNC1=Nc2ccc(Cl)cc2SC1`, for which the T/C under setting [1] is 101 % of control, the T/C under setting [2] was 104 % of control and the T/C under setting [3] is 93 % of control.
As for `N#C/C(=C/c1ccco1)c1ccc(Cl)cc1`, the T/C is 90 % of control under setting [12], 95 % of control under setting [13] and 92 % of control under setting [14].
On to `O=C(c1ccc(-c2ccccc2)cc1)C(Br)C(Br)c1ccccc1` (centres undefined), for which the T/C was 90 % of control under setting [16]; 90 % of control under setting [17]; 101 % of control under setting [18]; 116 % of control (dose: 400.0 mg/kg/injection, schedule: Q01DX009 (ip), vehicle: other).
As for `CN(C)CCN(C=O)CCN(C)C`, the T/C was 95 % of control under setting [4], 88 % of control under setting [5] and 101 % of control under setting [6].
Turning to `CCCCOc1ccc(C(=O)SCCCN=C(N)N)cc1`, the T/C is, setting by setting: (dose: 12.5 mg/kg/injection, schedule: Q01DX005 (ip), vehicle: saline) 98 % of control; under setting [7], 100 % of control; under setting [4], 96 % of control and 98 % of control and 105 % of control; under setting [5], 97 % of control.
On to `CCO/C(C)=C(\C#N)C(Cl)=Nc1ccc(OC)cc1`, for which the T/C was 108 % of control (dose: 100.0 mg/kg/injection, schedule: Q04DX002 (ip), vehicle: saline with Tween-80); 101 % of control (dose: 200.0 mg/kg/injection, schedule: Q04DX002 (ip), vehicle: saline with Tween-80); 100 % of control (dose: 400.0 mg/kg/injection, schedule: Q04DX002 (ip), vehicle: saline with Tween-80).
Regarding `Cn1nnn(C)c1=NC#N`, the T/C (dose: 100.0 mg/kg/injection, schedule: Q01DX001 (ip), vehicle: saline) is 100 % of control; the T/C (dose: 200.0 mg/kg/injection, schedule: Q01DX001 (ip), vehicle: saline) was 107 % of control; the T/C (dose: 400.0 mg/kg/injection, schedule: Q01DX001 (ip), vehicle: saline) is 100 % of control.
